Reference: US12679839B2, “Cyclin-dependent kinase 7 (CDK7) non-covalent inhibitors” (JANSSEN PHARMACEUTICA NV, priority 2020, dated 2026)

How the values were obtained:
[1] = biological target: T1, CDK7/Cyclin H/MAT-1 complex (Homo sapiens, UniProt P50613); experiment: Flint assay, end-point fluorescence (5 nM CDK7/Cyclin H/MAT-1 complex); format: biochemical; settings: read-out: CDK7 (5 nM) pIC50 (converted)
T1 construct: Human CDK7 (amino acids 1-346); His6 (N); TEV protease cleavage site (N); made in house; host or cells: baculovirus-SF9 insect cells
Method: (§1) Human CDK7 (amino acids 1-346) containing an N-terminal His6-tag followed by a tobacco etch virus (TEV) protease cleavage site, human MAT1 (amino acids 1-309) and human cyclin H (amino acids 1-323) were co-expressed in the baculovirus-SF9 insect cell expression system to generate a trimeric complex. Cell pellets were collected 72 h post-infection and were resuspended by Dounce homogenization in 20 mM Hepes-NaOH (pH 8.0), 300 mM NaCl, 10% glycerol, 2 mM dithiothreitol DTT), and 20 mM Imidazole supplemented with cOmplete™ Protease Inhibitor Cocktail (Roche) and 25 U/mL Benzonase® Nuclease HC according to the manufacturer's instructions. Cells were lysed by passing through a Microfluidics M110Y Microfluidizer 3 times at 600 kPa followed by centrifugation at 38,000×g at 4° C. for 1 hour. The supernatant was loaded onto a pre-equilibrated HisTrap HP column and eluted in 20 mM Hepes-NaOH (pH 8.0), 50 mM NaCl, 10% glycerol, 2 mM DTT, and 400 mM Imidazole. The eluate was further purified by gel filtration on a Superdex S200 16/60 column and eluted with 20 mM Hepes-NaOH (pH 7.5), 50 mM NaCl, 10% Glycerol, 2 mM DTT. Fractions containing a trimeric complex of CDK7, cyclin H, and MAT1 in a 1:1:1 ratio were pooled and concentrated to 3 mg/mL in a 10 kDa MWCO concentrator, and diluted to a final concentration of 1.6 mg/mL in 11.1 mM Hepes-NaOH (pH 8.0), 27.8 mM NaCl, 1.1 mM DTT and 50% glycerol.
Compounds with potencies approaching the limit of detection of the assay (IC50≤10 nM) were further assessed in a more sensitive fluorescence end-point assay.
(§2) [formula] where νo is the rate in the absence of inhibitor, νmin is the rate at highest inhibitor concentration, and h is the Hill coefficient. Flint Assay (5 nM CDK7/Cyclin H/MAT-1 Complex)
The continuous absorbance assay was converted to an end-point fluorescence assay following the NADH fluorescence signal decrease at the excitation and emission wavelengths of 340 nm and 440 nm, respectively.
Under the same concentrations of substrates and coupling reagents used in the absorbance assay, the fluorescence assay was performed at a reduced concentration of the CDK7/Cyclin H/MAT-1 complex of 5 nM (final concentration) with a reaction time of 24 hours. The percent of inhibition was calculated by the following equation. Percent of inhibition=(Sample−NC)/(PC−NC)*100 where NC is the mean if negative control (reaction without inhibitor), and PC is the mean of positive control (reaction with complete inhibition).
Dosing curves were fitted using the following equation to obtain IC50: Y=Bottom+(Top−Bottom)/(1+10^((log IC50−X)*Hill slope)) where X=log10 of the compound concentration; top and bottom can be defined by PC and NC respectively. Imaging-Based Cellular RNA PolII Ser5 Phosphorylation Assay

[2] = biological target: T1, CDK7/Cyclin H/MAT-1 complex; experiment: Absorbance kinetic assay (20 nM CDK7/Cyclin H/MAT-1 complex); format: biochemical; settings: for IC50: read-out: CDK7 (20 nM) pIC50 (converted)
Method: as §1, with “glycerol. […]” for “glycerol.”
Absorbance Kinetic Assay (20 nM CDK7/Cyclin H/MAT-1 Complex)
CDK7 complex catalyzes the ATP-dependent phosphorylation of a peptide substrate CDK7/9-tide that is derived from RNA Pol II to produce phosphorylated peptide and ADP. The kinase reaction product ADP was converted to lactate and NAD^+ in the presence of phosphoenol pyruvate (PEP), NADH and coupling enzymes lactate dehydrogenase (LDH) and pyruvate kinase (PK). CDK7 complex catalytic activity was measured by following the absorbance intensity continuously at 340 nm that corresponds with the depletion of NADH.
Absorbance at 340 nm was followed kinetically at an interval of 2 minutes for 8 hours.
The assay was carried out with 100 μl reaction volume per well in a 384-well plate that was pre-spotted nanoliter volume of compounds by LabCyte Echo 555. Compound dilution plates were made by 2-fold (could vary upon necessity) dilution in DMSO for 11 concentrations plus a DMSO control of uninhibited reaction. 2× substrate and coupling reagent mixture was added to the assay plate followed by an addition of an equal volume of 40 nM CDK7/Cyclin H/MAT-1 complex. After mixing, assay plates were spun at 2000 rpm for 3 minutes and then transferred to the plate reader for data collection.
For reversible inhibitors, the absorbance reaction progress curves were linear. The steady-state rate was derived from the slope of the linear curves. The following equation is applied to determine percent inhibition.
[formula] • νo=max rate (uninhibited rate) • νi=inhibited rate
The IC50 value is calculated by the following equation:
as §2

[3] = tested on: RNA polymerase II Serine 5 phosphorylation (Rpb1 CTD), downstream substrate of CDK7; experiment: Imaging-based cellular RNA PolII Ser5 phosphorylation assay in A549 cells; format: cell-based, human; settings: challenged with compound for 3 hours; for IC50: Homo sapiens, A549, 3 h, read-out: pRNA polII Ser5 (A549) pIC50 (converted)
Outline: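 A549 cells seeded 20 h in DMEM with 1% FBS, then exposed to compound for 3 h at 37 °C; fixed, methanol-permeabilized and immunostained for phospho-Rpb1 CTD Ser5, read by automated imaging. Signal normalized to DMSO (high) and 10 μM LDC4297 (low) controls; IC50 from four-parameter fit of % control vs concentration.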

T1 sequence (P50613 whole entry, the tested form may be a part): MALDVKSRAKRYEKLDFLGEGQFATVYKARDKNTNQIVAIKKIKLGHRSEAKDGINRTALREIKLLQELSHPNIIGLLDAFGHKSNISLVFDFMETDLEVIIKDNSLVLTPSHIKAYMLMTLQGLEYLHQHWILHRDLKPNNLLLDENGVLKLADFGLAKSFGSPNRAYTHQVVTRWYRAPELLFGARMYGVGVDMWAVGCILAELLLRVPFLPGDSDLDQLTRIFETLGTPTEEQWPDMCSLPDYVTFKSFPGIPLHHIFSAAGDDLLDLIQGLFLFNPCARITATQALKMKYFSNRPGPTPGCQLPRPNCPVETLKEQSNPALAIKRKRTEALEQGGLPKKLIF
T1 sequence (P51946 whole entry partner, the tested form may be a part): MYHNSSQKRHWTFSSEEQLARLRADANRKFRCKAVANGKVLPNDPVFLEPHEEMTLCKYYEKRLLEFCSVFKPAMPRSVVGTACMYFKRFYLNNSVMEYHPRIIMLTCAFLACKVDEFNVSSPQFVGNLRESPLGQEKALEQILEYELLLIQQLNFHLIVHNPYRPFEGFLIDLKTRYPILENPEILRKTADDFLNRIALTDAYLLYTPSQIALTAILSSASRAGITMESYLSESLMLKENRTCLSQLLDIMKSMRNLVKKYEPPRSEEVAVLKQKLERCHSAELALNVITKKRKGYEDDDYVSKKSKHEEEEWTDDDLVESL
T1 sequence (P51948 whole entry partner, the tested form may be a part): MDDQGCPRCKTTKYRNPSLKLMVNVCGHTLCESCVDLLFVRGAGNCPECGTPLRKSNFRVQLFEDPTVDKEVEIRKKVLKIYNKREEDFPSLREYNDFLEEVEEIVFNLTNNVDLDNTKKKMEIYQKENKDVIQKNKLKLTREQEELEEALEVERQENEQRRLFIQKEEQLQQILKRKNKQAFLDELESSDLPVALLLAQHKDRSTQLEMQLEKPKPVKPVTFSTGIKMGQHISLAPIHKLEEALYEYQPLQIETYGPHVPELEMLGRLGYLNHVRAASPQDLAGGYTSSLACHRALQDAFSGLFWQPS

SMILES: C[C@@H]1Cc2cnc(N[C@H]3CCN(C)C(=O)C3)nc2CN1C(=O)[C@H]1CCN(C)C[C@@H]1c1ccccc1 (relative stereo) [Compound 5]
- IC50 [1]: 2.14 nM
- IC50 [2]: < 9.77 nM

SMILES: C[C@@H]1Cc2cnc(NCc3ccn(C)n3)nc2CN1C(=O)[C@@H]1CCN(C)C[C@H]1c1ccccc1F (relative stereo) [Compound 130]
- IC50 [1]: 7.94 nM
- IC50 [2]: 38 nM

SMILES: C[C@@H]1Cc2cnc(NCc3ccn(C)n3)nc2CN1C(=O)[C@H]1CCN(C)C[C@@H]1c1ccccc1F (relative stereo) [Compound 131]
- IC50 [1]: 9.12 nM
- IC50 [2]: 61.7 nM

SMILES: [2H]C([2H])([2H])N1CC[C@H](C(=O)N2Cc3nc(NC4CCOCC4)ncc3C[C@H]2C)[C@@H](c2ccccc2)C1 (single isomer, unassigned) [Compound 156]
- IC50 [1]: 3.24 nM
- IC50 [3]: 126 nM

SMILES: CO[C@H]1CC[C@H](Nc2cc3c(cn2)C[C@H](C)N(C(=O)[C@H]2CCN(C)C[C@@H]2c2ccccc2)C3)CC1 (single isomer, unassigned) [Compound 172]
- IC50 [1]: 7.41 nM
- IC50 [3]: 186 nM

SMILES: C[C@@H]1Cc2cnc(NCc3ccccn3)nc2CN1C(=O)[C@H]1CCN(C)C[C@@H]1c1ccccc1 [Compound 35]
- IC50 [3]: 200 nM
- CDK7 (20 nM) pIC50 [2]: 7.78

SMILES: C[C@@H]1Cc2cnc(NCC3CCOCC3)nc2CN1C(=O)[C@H]1CCN(C)C[C@@H]1c1ccccc1 [Compound 36]
- IC50 [3]: 2400 nM
- CDK7 (20 nM) pIC50 [2]: 7.19

SMILES: CO[C@H]1CC[C@@H](Nc2ncc3c(n2)CN(C(=O)[C@H]2CCN(C)C[C@@H]2c2ccccc2)[C@H](C)C3)CC1 [Compound 38]
- IC50 [3]: 1380 nM
- CDK7 (20 nM) pIC50 [2]: 7.46

SMILES: C[C@@H]1Cc2cnc(NC3CCN(S(=O)(=O)C4CC4)CC3)nc2CN1C(=O)[C@H]1CCN(C)C[C@@H]1c1ccccc1 [Compound 41]
- IC50 [3]: > 10000 nM
- CDK7 (20 nM) pIC50 [2]: 6.18

SMILES: C[C@@H]1Cc2cnc(NC3CCN(C4CC4)CC3)nc2CN1C(=O)[C@H]1CCN(C)C[C@@H]1c1ccccc1 [Compound 42]
- IC50 [3]: 1380 nM
- CDK7 (20 nM) pIC50 [2]: 7.39

SMILES: C[C@@H]1Cc2cnc(NCc3cn(C)cn3)nc2CN1C(=O)[C@H]1CCN(C)C[C@@H]1c1ccccc1 [Compound 63]
- IC50 [3]: > 10000 nM
- CDK7 (20 nM) pIC50 [2]: 7.38

SMILES: C[C@@H]1Cc2cnc(NC3CCC(F)(F)CC3)nc2CN1C(=O)[C@H]1CCN(C)C[C@@H]1c1ccccc1 [Compound 64]
- IC50 [3]: 141 nM
- CDK7 (20 nM) pIC50 [2]: >8.01

SMILES: C[C@@H]1Cc2cnc(NC[C@H]3CCCO3)nc2CN1C(=O)[C@H]1CCN(C)C[C@@H]1c1ccccc1 [Compound 68]
- IC50 [3]: 2400 nM
- IC50 [2]: 14.5 nM

SMILES: C[C@@H]1Cc2cnc(NC3CCOCC3)nc2CN1C(=O)[C@@H]1CCN(C)C[C@H]1c1ccc(F)cc1 [Compound 92a]
- IC50 [3]: > 10000 nM
- CDK7 (20 nM) pIC50 [2]: 5.11

SMILES: Cc1cc(C2CN(C)CCC2C(=O)N2Cc3nc(NC4CCOCC4)ncc3C[C@H]2C)ccn1 (some centres unmarked) [Compound 101]
- IC50 [3]: 4470 nM
- CDK7 (20 nM) pIC50 [2]: 7.67

SMILES: CO[C@H]1CC[C@H](Nc2ncc3c(n2)CN(C(=O)C2CCN(C)CC2c2ccnc(C)c2)[C@H](C)C3)CC1 (some centres unmarked) [Compound 104]
- IC50 [3]: 1230 nM
- IC50 [2]: 12.9 nM

SMILES: C[C@@H]1Cc2cnc(NC3CCOCC3)nc2CN1C(=O)[C@@H]1CCN(C)C[C@H]1c1ccc(Cl)c(F)c1 [Compound 122a]
- IC50 [3]: > 10000 nM
- CDK7 (20 nM) pIC50 [2]: <5

SMILES: C[C@@H]1Cc2cnc(NC3CCOCC3)nc2CN1C(=O)[C@@H]1CCN(C)C[C@H]1C(F)(F)F [Compound 140a]
- IC50 [3]: > 10000 nM
- CDK7 (20 nM) pIC50 [2]: 5.89

SMILES: CO[C@H]1CC[C@H](Nc2cc3c(cn2)C[C@H](C)N(C(=O)[C@@H]2CCN(C)C[C@H]2c2cccc(C)c2)C3)CC1 [Compound 177b]
- pRNA polII Ser5 (A549) pIC50 [3]: ~5.23
- CDK7 (20 nM) pIC50 [2]: <5

SMILES: C[C@@H]1CN(C(=O)[C@H]2CCN(C)C[C@@H]2c2ccccc2)[C@@H](C)c2nc(NC3CCOCC3)ncc21 [Compound 180b]
- IC50 [3]: 3890 nM
- CDK7 (20 nM) pIC50 [2]: 5.65

SMILES: CN1CCN(C(=O)N2Cc3nc(NC4CCOCC4)ncc3CC2(C)C)[C@@H](c2ccccc2)C1 [Compound 205]
- IC50 [3]: 513 nM
- CDK7 (20 nM) pIC50 [2]: 7.89

SMILES: C[C@@H]1Cc2cnc(NC3CCOCC3)nc2CN1C(=O)N1CCNC[C@@H]1c1ccccc1 [Compound 208]
- IC50 [3]: 1230 nM
- CDK7 (20 nM) pIC50 [2]: 7.66
